Target: T1, T1R umami taste receptor (Homo sapiens, UniProt Q7RTX0+Q7RTX1)
T1 sequence (Q7RTX1 21-841): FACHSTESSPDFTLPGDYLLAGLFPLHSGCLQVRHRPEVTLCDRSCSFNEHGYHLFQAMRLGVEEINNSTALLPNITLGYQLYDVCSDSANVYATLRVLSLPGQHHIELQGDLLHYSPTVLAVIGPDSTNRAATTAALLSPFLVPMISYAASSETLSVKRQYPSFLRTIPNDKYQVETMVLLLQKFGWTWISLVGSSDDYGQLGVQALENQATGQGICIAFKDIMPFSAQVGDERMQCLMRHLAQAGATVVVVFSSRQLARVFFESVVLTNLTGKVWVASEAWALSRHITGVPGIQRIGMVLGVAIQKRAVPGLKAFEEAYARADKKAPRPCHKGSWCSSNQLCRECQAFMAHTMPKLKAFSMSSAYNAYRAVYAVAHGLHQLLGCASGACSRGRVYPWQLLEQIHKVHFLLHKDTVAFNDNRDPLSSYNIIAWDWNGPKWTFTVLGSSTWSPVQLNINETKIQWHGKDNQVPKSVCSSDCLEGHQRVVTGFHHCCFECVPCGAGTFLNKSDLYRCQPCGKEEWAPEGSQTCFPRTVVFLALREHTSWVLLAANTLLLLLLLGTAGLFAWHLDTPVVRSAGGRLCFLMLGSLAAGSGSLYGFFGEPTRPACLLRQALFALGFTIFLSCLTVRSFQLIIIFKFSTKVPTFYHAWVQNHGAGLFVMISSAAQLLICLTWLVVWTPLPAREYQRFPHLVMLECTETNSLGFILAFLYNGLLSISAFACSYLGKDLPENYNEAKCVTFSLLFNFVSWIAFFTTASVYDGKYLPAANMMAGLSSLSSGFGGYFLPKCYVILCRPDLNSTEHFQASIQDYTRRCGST
T1 sequence (Q7RTX0 21-852): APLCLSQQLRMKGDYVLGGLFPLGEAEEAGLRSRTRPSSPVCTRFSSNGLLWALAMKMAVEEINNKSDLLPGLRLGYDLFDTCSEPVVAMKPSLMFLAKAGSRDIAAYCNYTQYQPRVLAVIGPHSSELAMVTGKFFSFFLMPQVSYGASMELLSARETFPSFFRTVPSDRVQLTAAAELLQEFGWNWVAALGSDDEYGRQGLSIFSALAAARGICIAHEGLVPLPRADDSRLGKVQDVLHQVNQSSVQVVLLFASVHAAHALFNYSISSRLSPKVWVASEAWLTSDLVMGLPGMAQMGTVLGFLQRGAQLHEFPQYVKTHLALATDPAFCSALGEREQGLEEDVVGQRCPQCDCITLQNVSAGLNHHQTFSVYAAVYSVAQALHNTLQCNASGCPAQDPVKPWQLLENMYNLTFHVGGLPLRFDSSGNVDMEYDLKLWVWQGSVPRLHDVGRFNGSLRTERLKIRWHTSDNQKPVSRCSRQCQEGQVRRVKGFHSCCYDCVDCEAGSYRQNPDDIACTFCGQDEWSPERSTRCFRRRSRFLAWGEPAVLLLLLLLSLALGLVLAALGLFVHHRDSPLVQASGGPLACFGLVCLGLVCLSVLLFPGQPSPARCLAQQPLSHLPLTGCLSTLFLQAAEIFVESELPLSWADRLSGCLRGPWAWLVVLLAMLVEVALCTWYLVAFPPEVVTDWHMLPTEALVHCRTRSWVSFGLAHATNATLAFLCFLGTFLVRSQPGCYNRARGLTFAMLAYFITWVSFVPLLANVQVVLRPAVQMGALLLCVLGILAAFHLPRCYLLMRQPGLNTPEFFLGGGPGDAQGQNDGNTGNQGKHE
Experiment: in vitro cell-based assay, cells expressing the T1R umami taste receptor; enhancement of MSG
Settings: for MSG Enh. Ratio: MSG enhancement ratio at a particular concentration (concentration not given); for EC50: cells that express the T1R umami taste receptor, dose-binding curves
Description: Each of Compounds 101-145 was synthesized according to one of the general procedures set forth above in Examples 1 and Example 2. Thereafter, the compounds were tested in an in vitro cell-based assay having cells that express the T1R umami taste receptor. Dose-binding curves were recorded and the EC50 was determined for enhancement of MSG binding. Table 2 sets forth the calculated EC50 values for certain tested compounds as well as the MSG enhancement ratio at a particular concentration.

| MSG Enh. Ratio | EC50 | MSG Enh. Ratio @ [10 uM] (compound at 10 uM) | Compound |
| --- | --- | --- | --- |
| 4.7 | 7.74 µM |  | COc1ccc(/C=C/C(=O)N[C@H](CC(C)C)C(=O)O)cc1 [Compound 137, (E)-(3-(4-methoxyphenyl)acryloyl)-D-leucine] |
| 1.2 | > 50 µM |  | Cc1ccc(C(=O)N[C@@H](CC(C)C)C(=O)O)cc1 [Compound 123, (4-methylbenzoyl)-L-leucine] |
| 1.3 | > 50 µM |  | COc1cc(OC)cc(C(=O)N[C@H](CO)CC(C)C)c1 [Compound 108, (S)-N-(1-hydroxy-4-methylpentan-2-yl)-3,5-dimethoxybenzamide] |
| 1.5 | > 50 µM |  | CC[C@H](C)[C@H](NC(=O)/C=C/c1ccc(OC)cc1)C(=O)O [Compound 139, ((E)-3-(4-methoxyphenyl)acryloyl)-L-isoleucine] |
| 2.2 | > 50 µM |  | COc1ccc(/C=C/C(=O)N[C@@H](CCC(=O)O)C(=O)O)cc1 [Compound 142, (E)-(3-(4-methoxyphenyl)acryloyl)-L-glutamic acid] |
| 1.6 | > 50 µM |  | COc1cccc(C(=O)N[C@H](CO)Cc2ccccc2)c1O [Compound 113, (S)-2-hydroxy-N-(1-hydroxy-3-phenylpropan-2-yl)-3-methoxybenzamide] |
| 1.7 | > 50 µM |  | COc1ccc(/C=C/C(=O)N[C@H](CO)CC(C)C)cc1 [Compound 114, (S,E)-3-(4-methoxyphenyl)-N-(1-hydroxy-4-methylpentan-2-yl)acrylamide] |
| 1.4 | > 50 µM |  | Cc1ccc(C(=O)N[C@@H](CCC(=O)O)C(=O)O)cc1C [Compound 128, (3,4-dimethylbenzoyl)-L-glutamic acid] |
|  | > 50 µM |  | COc1ccc(/C=C/C(=O)N[C@H](C(=O)O)C(C)C)cc1 [Compound 136, (E)-(3-(4-methoxyphenyl)acryloyl)-L-valine] |
| 1.2 | > 50 µM |  | CC[C@H](C)[C@@H](CO)NC(=O)c1ccc(C(C)C)cc1 [Compound 103, N-((2S,3S)-1-hydroxy-3-methylpentan-2-yl)-4-isopropylbenzamide] |
| 1.4 | > 50 µM |  | CC[C@H](C)[C@@H](CO)NC(=O)c1ccc2c(c1)OCO2 [Compound 110, N-((2S,3S)-1-hydroxy-3-methylpentan-2-yl) benzo[d][1,3]dioxole-5-carboxamide] |
| 1.9 | > 50 µM |  | COc1cc(OC)cc(C(=O)N[C@H](CO)Cc2ccccc2)c1 [Compound 107, (S)-N-(1-hydroxy-3-phenylpropan-2-yl)-3,5-dimethoxybenzamide] |
| 1.0 | > 50 µM |  | CC(C)/C=C/C(=O)N[C@@H](CCC(=O)O)C(=O)O [Compound 145, (E)-(4-methylpent-2-enoyl)-L-glutamic acid] |
| 1.2 | > 50 µM |  | O=C(O)CC[C@H](NC(=O)c1ccc2c(c1)OCO2)C(=O)O [Compound 131, (benzo[d][1,3]dioxole-5-carbonyl)-L-glutamic acid] |
| 1.4 | > 50 µM |  | CC(C)c1ccc(C(=O)N[C@H](CO)Cc2ccccc2)cc1 [Compound 101, (S)-N-(1-hydroxy-3-phenylpropan-2-yl)-4-isopropylbenzamide] |
| 1.7 | > 50 µM |  | CC(C)[C@H](NC(=O)/C=C/c1ccccc1)C(=O)O [Compound 132, Cinnamoyl-L-valine] |

| MSG Enh. Ratio | EC50 | MSG Enh. Ratio @ [10 uM] (compound at 10 uM) | Compound |
| --- | --- | --- | --- |
| 1.5 | > 50 µM |  | CCC(C)[C@@H](CO)NC(=O)/C=C/c1ccc(OC)cc1 (stereo in doubt) [Compound 115, (E)-N-((2S,3R)-1-hydroxy-3-methylpentan-2-yl)-3-(4-methoxyphenyl)acrylamide] |
| 1.2 | > 50 µM |  | O=C(O)CC[C@H](NC(=O)/C=C/c1ccccc1)C(=O)O [Compound 134, Cinnamoyl-L-glutamate] |
| 6.0 | ~40 µM |  | CCOc1ccc(/C=C/C(=O)N[C@H](CO)[C@@H](C)CC)cc1 [Compound 118, (E)-3-(4-ethoxyphenyl)-N-((2S,3S)-1-hydroxy-3-methylpentan-2-yl)acrylamide] |
| 3.4 | > 50 µM |  | Cc1ccc(C(=O)N[C@H](CO)Cc2ccccc2)cc1C [Compound 105, (S)-N-(1-hydroxy-3-phenylpropan-2-yl)-3,4-dimethylbenzamide] |
| 1.4 | > 50 µM |  | CC(C)C[C@@H](CO)NC(=O)c1ccc(C(C)C)cc1 [Compound 102, (S)-N-(1-hydroxy-4-methylpentan-2-yl)-4-isopropylbenzamide] |
| 2.3 | > 50 µM |  | CC(C)C[C@@H](CO)NC(=O)c1ccc2c(c1)OCO2 [Compound 112, (S)-N-(1-hydroxy-4-methylpentan-2-yl) benzo[d][1,3]dioxole-5-carboxamide] |
| 2.5 | > 50 µM |  | CC[C@H](C)[C@@H](CO)NC(=O)c1ccc(C)c(C)c1 [Compound 106, N-((2S,3S)-1-hydroxy-3-methylpentan-2-yl)-3,4-dimethylbenzamide] |
| 3.5 | ~20 µM |  | CC(C)C[C@@H](NC(=O)c1ccc2c(c1)OCO2)C(=O)O [Compound 129, (benzo[d][1,3]dioxole-5-carbonyl)-D-leucine] |
| 1.8 | 27 µM |  | Cc1ccc(C(=O)N[C@H](CC(C)C)C(=O)O)cc1C [Compound 126, (3,4-dimethylbenzoyl)-D-leucine] |
| 1.6 | > 50 µM |  | COc1ccc(C[C@H](NC(=O)/C=C/c2ccc(OC)c(OC)c2)C(=O)O)cc1 [Compound 141, (S,E)-2-(3-(3,4-dimethoxyphenyl)acrylamido)-3-(4-methoxyphenyl)propanoic acid] |
| 1.0 | > 50 µM |  | COc1ccc(/C=C/C(=O)N[C@@H](CC(C)C)C(=O)O)cc1 [Compound 138, (E)-(3-(4-methoxyphenyl)acryloyl)-L-leucine] |
|  | 10 µM | 6.1 @ [10 uM] | CCOc1ccc(/C=C/C(=O)N[C@H](CO)Cc2ccccc2)cc1 [Compound 119, (S,E)-3-(4-ethoxyphenyl)-N-(1-hydroxy-3-phenylpropan-2-yl)acrylamide] |
| 2.0 | > 50 µM |  | COc1ccc(/C=C/C(=O)N[C@@H](Cc2ccc(OC)cc2)C(=O)O)cc1 [Compound 135, (S,E)-3-(4-methoxyphenyl)-2-(3-(4-methoxyphenyl)acrylamido)propanoic acid] |
| 1.1 | > 50 µM |  | CC(C)C[C@H](NC(=O)/C=C/c1ccccc1)C(=O)O [Compound 133, Cinnamoyl-L-leucine] |
| 1.1 | > 50 µM |  | CC[C@H](C)[C@@H](CO)NC(=O)c1cc(OC)cc(OC)c1 [Compound 109, N-((2S,3S)-1-hydroxy-3-methylpentan-2-yl)-3,5-dimethoxybenzamide] |
| 6.8 | ~25 µM |  | CCOc1ccc(/C=C/C(=O)N[C@H](CO)CC(C)C)cc1 [Compound 117, (S,E)-3-(4-ethoxyphenyl)-N-(1-hydroxy-4-methylpentan-2-yl)acrylamide] |

| Compound | MSG Enh. Ratio | EC50 | MSG Enh. Ratio @ [10 uM] (compound at 10 uM) |
| --- | --- | --- | --- |
| Cc1ccc(C(=O)N[C@H](C(=O)O)C(C)C)cc1C [Compound 121, (3,4-dimethylbenzoyl)-L-valine] | 1.1 | > 50 µM |  |

Source: patent US20250176598A1, “AMIDE COMPOUNDS AND THEIR USE AS FLAVOR MODIFIERS” (Firmenich Incorporated, priority 2022, published 2025)
